Key:
senescent human cells = test: Viability of doxorubicin-induced senescent human cells (CellTiter-Glo), Example 11; format: cell-based; details: Homo sapiens, 0 μM = 100, read-out: Survival; for viability at […]: 3.3 μM
[1] = system: HMGN1 secreted from senescent A549 cells; test: HMGN1 secretion (ELISA) from senescent A549 cancer cells, Example 12; format: cell-based, human; details: senescent untreated = 100%; 30 μM; 90 μM for LX-305, 905, 1302, 1601, 1603, 2003, 2702, 2901, 3106; 270 μM for LX-1103, 2005, 2007;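 further: A549 cells made senescent by doxorubicin exposure, with DMSO-treated cells serving as the non-senescent control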
senescent A549 cells [2] = test: Viability of senescent A549 cancer cells (CellTiter-Glo), Example 12; format: cell-based, human; details: Homo sapiens, A549, 0 μM = 100, read-out: Survival
senescent foreskin cells = test: Survival of senescent human cells treated with supernatant (secreted fluid) from death-induced cells, Example 13; format: cell-based; details: Table 8; supernatant from dying senescent cells treated at 30, 90 or 270 μM (as Example 11); senescent treated cells
naturally aged mice = test: Anti-aging evaluation in naturally aged mice, Example 31, Table 55; format: in vivo, mouse; details: for Femur Ctsk mRNA / Kidney Agtr1a mRNA / Liver IL6 mRNA / Liver MMP3 mRNA / Liver p16 mRNA / Open Field Test Time in Center: untreated = 100%; for Heart Sur2a mRNA / Joint Col2a1 mRNA / Skin Col1a1 mRNA / Skin SDF1 mRNA: untreated = 1.0; for Muscle Mass: untreated 0.64 g; for Fat Mass: untreated 0.82 g; for Cataract incidence: untreated 83%;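 on all read-outs here: Vehicle-dosed control mice received solution alone at matching volume, values compare test-compound-treated aged mice against that control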
[3] = system: bleomycin-induced pulmonary fibrosis mice; test: Bleomycin-induced pulmonary fibrosis mice, Example 31, Table 56; format: in vivo, mouse; details: untreated = 100%
Summary of the method: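 Mice with bleomycin-induced pulmonary fibrosis, untreated or given test compound, with vehicle-only controls. Lung tissue collected for RNA extraction and qRT-PCR analysis.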

[4] = system: carbon tetrachloride-induced liver fibrosis mice; test: Carbon tetrachloride-induced liver fibrosis mice, Example 31, Table 57; format: in vivo, mouse; details: CCl4-induced liver fibrosis mice, untreated = 100%
Summary of the method: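 Mice with induced hepatic fibrosis received either the test compound or, as controls, an equal volume of vehicle solution alone. Once dosing ended, liver tissue was harvested and total RNA was isolated. cDNA was synthesized from this RNA, and quantitative RT-PCR was run on it to measure hepatic mRNA levels of the fibrosis- and senescence-related genes.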

[5] = system: naturally aged C57BL6J mice; test: Geriatric depression and anxiety in aged mice, Example 21-8; format: in vivo, mouse; details: aged mice
From the text: The amount of senescent-associated secretory factor (SASP) in serum and tissues collected from mice of Examples 21-5 and 21-6 was reduced by treatment with LX-5701, LX-2101, or LX-2102. It was confirmed that removing senescent cells, which increase with aging in mice, and effectively reducing the amount of senescent-associated secretory factor (SASP) can improve symptoms of geriatric depression and anxiety.

[6] = system: obesity-induced aged C57BL6J mice; test: Anxiety, depression, lethargy (open field test) in obesity-aged mice, Example 23-4, Table 44; format: in vivo, mouse; details: obesity-aged mice
Description: 15-week-old male C57BL6J mice (The Jackson Laboratory) were induced to obesity by a high-fat diet using the same method as in Example 9-1 WO2023-085787 A1. After acclimation to the experimental environment for one week, the mice were randomly assigned to experimental and control groups. […] LX-3002 was mixed in distilled water with 4% DMSO, 30% PEG300, and 5% Tween80 and administered orally at a concentration of 10 mg/kg daily for 21 days. LX-5701 was mixed in PBS and administered orally at a concentration of 360 mg/kg daily for 21 days. LX-6807 was mixed in saline and administered intraperitoneally at a concentration of 1 mg/kg daily for 21 days. The control group received only the solution in the same volume. After the end of drug administration, the methods described in each example below were performed.
It was determined that anxiety and depression caused by obesity are not causally related to increased body weight, but rather are caused by the accumulation of senescent cells. Accordingly, an activity assessment (open field test) was performed using the same method as in Example 7-7 of WO2023-085787 A1 to analyze lethargy caused by anxiety and depression caused by obesity in mice. The table below quantitatively represents activity, a criterion for assessing lethargy due to anxiety and depression, under conditions in which aging was induced by obesity and the test compound was not administered or was administered. The activity assessment after obesity-induced aging was calculated as 100% and compared with the activity assessment after test compound treatment.

senescent cells = test: Viability of senescent cells (CellTiter-Glo), Example 17, Table 13; details: for Survival (%): doxorubicin-induced senescent cells, 0 μM = 100
senescent A549 cells [7] = test: Viability of senescent A549 cells (CellTiter-Glo), Example 18, Table 15; details: for Survival (%): doxorubicin-induced senescent A549 cells, 0 μM = 100%
[8] = system: HMGN1 secreted from senescent A549 cells; test: HMGN1 secretion (ELISA) from senescent A549 cells, Example 18, Table 14; format: cell-based, human; details: doxorubicin-senescent A549, without test compound (DMSO) = 100%; 30 μM (LX-5211, LX-5433, LX-6530, LX-6800, LX-9105, LX-9118, LX-9131, LX-9136, LX-9302, LX-9321, LX-9565, LX-9602 at 90 μM; LX-9336 at 2.4 mM)
[9] = Homo sapiens, read-out: Survival (%)
[10] = Homo sapiens, A549, read-out: Survival (%)

| Molecule | Femur Ctsk mRNA (naturally aged mice) [%] | Heart Sur2a mRNA (naturally aged mice) [fold] | Joint Col2a1 mRNA (naturally aged mice) [fold] | Kidney Agtr1a mRNA (naturally aged mice) [%] | Liver IL6 mRNA (naturally aged mice) [%] | Liver MMP3 mRNA (naturally aged mice) [%] | Liver p16 mRNA (naturally aged mice) [%] | Open Field Test Time in Center (naturally aged mice) [%] | Skin Col1a1 mRNA (naturally aged mice) [Fold] | Skin SDF1 mRNA (naturally aged mice) [fold] | Muscle Mass (naturally aged mice) [g] | Fat Mass (naturally aged mice) [g] | Cataract incidence (naturally aged mice) [%] | Lung p16 mRNA [3] | Col1a1 mRNA [3] | Liver p16 mRNA [4] | Col1a1 mRNA [4] | amount of SASP, p16, SA-β-gal, lipofuscin [5] | symptoms of geriatric depression and anxiety [5] | geriatric depression [6] | also measured |
| --- | --- | --- | --- | --- | --- | --- | --- | --- | --- | --- | --- | --- | --- | --- | --- | --- | --- | --- | --- | --- | --- |
| Cc1nnc(-c2cc(C(=O)N3CCC(c4ccc(C#N)cc4)CC3)c(C)cc2C2CCC2)[nH]1 [LX-305] | 73 | 1.8 | 2.6 | 73 | 61 | 78 | 69 | 157 | 1.7 | 1.9 | 0.66 | 0.91 | 75 | 62 (±3.5) % | 73 (±4.1) % | 64 (±2.3) % | 70 (±3.2) % |  |  |  | viability at 1.1 µM (senescent human cells; 1.1 μM): 101%; viability at […] (senescent human cells): 97.2%; viability at 10 µM (senescent human cells; 10 μM): 91%; viability at 30 µM (senescent human cells; 30 μM): 78%; viability at 90 µM (senescent human cells; 90 μM): 23.2%; HMGN1 [1]: 227%; viability at 1.1 µM (senescent A549 cells [2]; 1.1 μM): 99.2%; viability at […] (senescent A549 cells [2]; 3.3 μM): 93.8%; viability at 10 µM (senescent A549 cells [2]; 10 μM): 63.1%; viability at 30 µM (senescent A549 cells [2]; 30 μM): 41%; viability at 90 µM (senescent A549 cells [2]; 90 μM): 13.3%; Survival (senescent foreskin cells): 89.5 |
| CCN(CC)C(=S)SSC(=S)N(CC)CC [LX-1601, Disulfiram] | 40 | 2.6 | 2.0 | 66 | 43 | 39 | 62 | 228 | 1.8 | 2.1 | 0.74 | 1.20 | 62 | 52 (±3.7) % | 63 (±4.6) % | 48 (±4.0) % | 50 (±2.0) % |  |  |  | viability at […] (senescent human cells): 90%; HMGN1 [1]: 257%; Survival (senescent foreskin cells): 81.4 |
| Cc1nc(C(=O)NCC(=O)O)c(O)c2ccc(Oc3ccccc3)cc12 [LX-6806, Roxadustat] |  |  |  |  |  |  |  |  |  |  |  |  |  |  |  |  |  | reduced | improved | similarly improving geriatric depression | viability at 1.1 µM (senescent cells; [9]): 95.4%; viability at 10 µM (senescent cells; [9]): 61.2%; viability at 30 µM (senescent cells; [9]): 32.8%; viability at 1.1 µM (senescent A549 cells [7]; [10]): 106%; viability at 10 µM (senescent A549 cells [7]; [10]): 67.2%; viability at 30 µM (senescent A549 cells [7]; [10]): 23.5% |
| Nc1ccc(O)c(C(=O)O)c1 [LX-9118, 5-aminosalicylic acid] | 75 | 1.7 | 1.8 | 71 | 62 | 83 | 74 | 199 | 1.9 | 1.8 | 0.73 | 0.88 | 62 | 76 (±4.6) % | 58 (±3.5) % | 69 (±2.4) % | 64 (±2.0) % | reduced | improved | similarly improving geriatric depression | viability at 1.1 µM (senescent cells; [9]): 102%; viability at 10 µM (senescent cells; [9]): 94.1%; viability at 30 µM (senescent cells; [9]): 62.8%; viability at 90 µM (senescent cells; [9]): 4.9%; viability at 1.1 µM (senescent A549 cells [7]; [10]): 105%; viability at 10 µM (senescent A549 cells [7]; [10]): 81.7%; viability at 30 µM (senescent A549 cells [7]; [10]): 51.2%; viability at 90 µM (senescent A549 cells [7]; [10]): 3.4% |
| CN(C)c1cccc(-c2c3c(=O)n(-c4ccccc4Cl)[nH]c3cc(=O)n2C)c1 [LX-9744, Setanaxib] | 57 | 2.3 | 2.4 | 65 | 58 | 49 | 75 | 171 | 2.3 | 1.7 | 0.69 | 0.84 | 78 | 73 (±3.1) % | 64 (±3.3) % | 71 (±3.1) % | 48 (±3.5) % | reduced | improved | similarly improving geriatric depression | viability at 1.1 µM (senescent cells; [9]): 101%; viability at 10 µM (senescent cells; [9]): 69.8%; viability at 30 µM (senescent cells; [9]): 22.3%; viability at 1.1 µM (senescent A549 cells [7]; [10]): 91.8%; viability at 10 µM (senescent A549 cells [7]; [10]): 73.5%; viability at 30 µM (senescent A549 cells [7]; [10]): 25.8% |
| Alirocumab [LX-9562] |  |  |  |  |  |  |  |  |  |  |  |  |  |  |  |  |  |  |  |  | HMGN1 [8]: 269%; Survival (%) (senescent cells; 1.1 μM): 97.0%; Survival (%) (senescent cells; 10 μM): 45.4%; Survival (%) (senescent cells; 30 μM): 14.0%; Survival (%) (senescent cells; […]): 97.3%; Survival (%) (senescent A549 cells [7]; 1.1 μM): 94.1%; Survival (%) (senescent A549 cells [7]; 10 μM): 51.8%; Survival (%) (senescent A549 cells [7]; 30 μM): 2.1%; Survival (%) (senescent A549 cells [7]; […]): 89.1% |
| Dazdotuftide [LX-9601] |  |  |  |  |  |  |  |  |  |  |  |  |  |  |  |  |  |  |  |  | HMGN1 [8]: 209%; Survival (%) (senescent cells; 1.1 μM): 96.9%; Survival (%) (senescent cells; 10 μM): 78.8%; Survival (%) (senescent cells; 30 μM): 30.2%; Survival (%) (senescent cells; […]): 89.8%; Survival (%) (senescent A549 cells [7]; 1.1 μM): 92.2%; Survival (%) (senescent A549 cells [7]; 10 μM): 69.1%; Survival (%) (senescent A549 cells [7]; 30 μM): 15.0%; Survival (%) (senescent A549 cells [7]; […]): 89.0% |
| Evolocumab (antibody, chains of the INN, looked up, V domains shown, CAS 1256937-27-5) VH: EVQLVQSGAEVKKPGASVKVSCKASGYTLTSYGISWVRQAPGQGLEWMGWVSFYNGNTNYAQKLQGRGTMTTDPSTSTAYMELRSLRSDDTAVYYCARGYGMDVWGQGTTVTVSS VL: ESALTQPASVSGSPGQSITISCTGTSSDVGGYNSVSWYQQHPGKAPKLMIYEVSNRPSGVSNRFSGSKSGNTASLTISGLQAEDEADYYCNSYTSTSMVFGGGTKLTVL |  |  |  |  |  |  |  |  |  |  |  |  |  |  |  |  |  |  |  |  | HMGN1 [8]: 291%; Survival (%) (senescent cells; 1.1 μM): 93.9%; Survival (%) (senescent cells; 10 μM): 58.2%; Survival (%) (senescent cells; 30 μM): 18.5%; Survival (%) (senescent cells; […]): 87.6%; Survival (%) (senescent A549 cells [7]; 1.1 μM): 97.5%; Survival (%) (senescent A549 cells [7]; 10 μM): 43.2%; Survival (%) (senescent A549 cells [7]; 30 μM): 5.3% |

Reference: US20260306460A1, “COMPOSITION FOR REMOVING AND INHIBITING SENESCENT CELLS, AND USES THEREOF” (LIFECEUTIX CO., LTD., priority 2023, published 2026)
